The source of these data is patent US8076347B2, “Compounds and methods for the treatment of cancer” (University of Georgia Research Foundation, Inc., priority 1995, dated 2011).

Entries after “also recorded” stand apart in the source; their conditions may differ.

Data set [1] relates to tumor cell lines. It is filed as cell-based.
In data set [2] the test system is HepG2 cells. The data set can be described thus: Activity against HepG2 cells in nude mice. The format is in vivo.
Data set [3] deals with Leukemia P388 cells. The data set can be described thus: In vivo treatment of leukemia P388 cells implanted ip in BDF1 mice. Particulars: 25 × 2 × 5 mg/kg ip, twice a day on days 1 to 5.
Description: 10^6 Leukemia P388 cells were implanted ip to BDF1 mice obtained from Southern Research Institute, Alabama.
Data set [4] has as its target human deoxycytidine kinase (Homo sapiens, UniProt P27707). The data set can be described thus: In vitro enzymatic studies of phosphorylation. It is filed as biochemical.
A short description of data set [5]: Phosphorylation to nucleotides in vivo.
In data set [6] the test system is Colon 38 tumor cells. Put plainly: In vivo treatment of Colon 38 tumor cells implanted sc in BDF1 mice. Particulars: 25 mg/kg/dose twice daily for five days. The text has this: Colon 38 tumor cells were implanted sc to BDF1 mice.
Data set [7] has as its target cytidine deaminase (Homo sapiens, UniProt P32320). The data set can be described thus: Enzymatic studies of deamination. It is filed as biochemical.

Chain of cytidine deaminase (P32320 whole entry, species assumed): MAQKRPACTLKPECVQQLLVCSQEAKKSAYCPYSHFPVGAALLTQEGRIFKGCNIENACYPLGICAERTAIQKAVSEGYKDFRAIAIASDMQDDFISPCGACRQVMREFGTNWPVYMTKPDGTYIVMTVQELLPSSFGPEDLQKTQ
Chain of human deoxycytidine kinase (P27707 whole entry): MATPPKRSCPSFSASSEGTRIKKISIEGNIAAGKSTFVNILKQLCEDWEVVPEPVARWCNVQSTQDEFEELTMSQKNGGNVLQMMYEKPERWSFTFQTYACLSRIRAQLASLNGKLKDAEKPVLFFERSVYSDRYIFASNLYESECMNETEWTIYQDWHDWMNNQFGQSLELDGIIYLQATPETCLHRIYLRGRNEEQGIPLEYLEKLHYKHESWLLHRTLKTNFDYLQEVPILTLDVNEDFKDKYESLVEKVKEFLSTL

Turning to `O=c1ccn(C2COC(CO)O2)c(=O)[nH]1` (single isomer, unassigned; (-)) [(−)-OddU, reference compound], the “cytotoxicity in all of the tumor cell lines tested” value in data set [1] is on record as “not toxic”.
`Nc1ccn([C@@H]2CO[C@H](CO)O2)c(=O)n1` [(−)-OddC, (−)-(2S,4S)-1-(2-hydroxymethyl-1,3-dioxolan-4-yl)cytosine]: the “activity against HepG2 cells in nude mice” value in data set [2] is recorded as “active”. The “Cures/Total (survivors equal or greater than 45 day life span)” value in data set [3] (5 mg/kg) is listed as 1/6. Also, the “ILS (Increased Life Span percent above control)” value in data set [3] (10^6 P388 cells ip on day 0) is 103%. In addition, the “effectiveness compared with AraC” value in data set [1] (KB, DU-145 and PC-3 cell lines) is reported as “significantly more effective than AraC”. In addition, in data set [1], the “cytotoxicity in all of the tumor cell lines tested” value was “more cytotoxic than AraC”. Also, in data set [4], the “phosphorylation by human deoxycytidine kinase” value is listed as “can be phosphorylated by this enzyme”. The “phosphorylation to mono-, di- and tri-phosphate nucleotide” value in data set [5] is recorded as “can be phosphorylated”. The “colon tumor cell growth (FIG. 2)” value in data set [6] was “retarded”. Besides, in data set [7], the “deamination / substrate for deaminase” value is listed as “not a substrate for deaminase; also recorded: not deaminated”.
Consider `Nc1ccn([C@@H]2O[C@H](CO)[C@@H](O)[C@@H]2O)c(=O)n1` [AraC, Cytosine arabinoside, reference compound], for which the “activity against HepG2 cells in nude mice” value in data set [2] was “inactive”.
